In publication PMC9223062, “Purification and Characterization of a Dark Red Skin Related Dimeric Polyphenol Oxidase from Huaniu Apples” (Foods, 2022) one finds Km data, which are given here for five molecules.

For orientation: Km means the concentration of substrate that gives half-maximal velocity.

For assay [1], the system named is T1, dimeric PPO from Huaniu apple peel.
T1 construct: gene PPO2; native, purified from fruit peel (ammonium sulfate, DEAE-sepharose, Sephadex G-200); soluble PPO; about 140 kDa by native-PAGE and SDS-PAGE, 61 kDa monomer by urea-SDS-PAGE, homodimer
As to the kind of experiment: spectrophotometric oxidation assay, Lineweaver-Burk. It is filed as biochemical, Malus domestica. Particulars: pH 5.0 citrate phosphate buffer, 25 °C. From the text: spectrophotometric oxidation assay, Lineweaver-Burk on dimeric PPO from Huaniu apple peel

Assay [2] shares this test system. As to the kind of experiment: spectrophotometric oxidation assay at […] nm, Lineweaver-Burk. Type of assay: biochemical, Malus domestica. Particulars: pH 5.0 citrate phosphate buffer, 25 °C; abstract 1.17, b44 prints 1.16.

The structures appear in SMILES notation.

In the case of `Cc1ccc(O)c(O)c1` [4-methylcatechol], the Michaelis-Menten constant (Km) in assay [1] was 2470 µM.

`Oc1cc(O)c2c(c1)O[C@H](c1ccc(O)c(O)c1)[C@@H](O)C2` [CT, (+)-catechin]: in assay [1], the Km was 4630 µM.

Regarding `O=C(/C=C/c1ccc(O)c(O)c1)O[C@@H]1C[C@](O)(C(=O)O)C[C@@H](O)[C@H]1O` [chlorogenic acid], the Km in assay [1] (text b44 prints 1.29, table value agrees with its Vmax/Km) is 2220 µM.

Regarding `Oc1ccccc1O` [catechol], the Michaelis constant (Km) in assay [1] (text prints 0.60) was 610 µM.

As for `Oc1cc(O)c2c(c1)O[C@H](c1ccc(O)c(O)c1)[C@H](O)C2` [EC, (−)-epicatechin], the Michaelis-Menten constant (Km) in assay [2] turned out to be 1170 µM.
